# Assay results published in PMC10057893, “Synthesis and Biological Evaluation of New Schiff Bases Derived from 4-Amino-5-(3-fluorophenyl)-1,2,4-triazole-3-thione” (Molecules, 2023).
# Where two headings read alike, the source gives them in different places.
# Tests used:
# [1] = system: yeast reference strains (Candida spp.); assay: Positive control antifungal, broth microdilution MIC; format: cell-based; conditions: range over yeast reference strains
# Description: (§1) The reference antibiotics used during our studies for the selected species of reference bacteria were ciprofloxacin and cefuroxime (Merck KGaA, Darmstadt, Germany). Nystatin (Merck KGaA, Darmstadt, Germany), a known antifungal antibiotic, was used as a positive control for Candida spp.
# All reference antimicrobials against bacteria or fungi were tested in a final concentration range from 0.0049 to 10 µg/mL. The tested Schiff bases were two-fold diluted in the concentration range from 0.49 to 1000 μg/mL in culture broth medium for bacteria or fungi. The medium with DMSO at the final concentrations and without the tested Schiff bases served as a control—no microbial growth inhibition was observed. Three types of control were also carried out simultaneously: (1) serial dilution of the tested Schiff bases in broth medium (without bacteria or fungi) in the same concentration range, (2) a growth control for each strain in broth medium and agar medium for bacteria or fungi, and (3) a negative control of sterile broth or agar medium. […]
# After incubation, 5 μL of the broth media cultured with bacteria or fungi were removed from each well of the plates used in the MIC experiments. […] After incubation, a visual reading of MBC or MFC values was made. […]
# MTT cell viability assay = format: cell-based; conditions: human, HaCaT cells (immortal keratinocytes), HaCaT normal cell line, read-out: Cytotoxic activity IC50 (converted)
# Description: (§2) All the cell lines were purchased from the American Type Culture Collection (ATCC, Rockville, MD, USA) and cultured in strictly defined conditions according to the recommended ATCC protocol. The PC3 cells were cultured in RPMI 1640 (Roswell Park Memorial Institute, Biowest SAS, Nuaillé, France), while the MDA-MB-231 and HaCaT cells were maintained in DMEM (Dulbecco’s Modified Eagle’s Medium, Biowest SAS, Nuaillé, France) supplemented with 1% streptomycin and penicillin and in 10% heat-inactivated fetal bovine serum (FBS, Gibco BRL San Francisco, CA, USA) with 1% streptomycin and penicillin. The cells were incubated in a 37 °C/5% CO2 humidified incubator. They were cultured until 80–90% confluence was achieved. Then, they were harvested by treatment with 0.25% trypsin-0.02% EDTA (Gibco BRL, San Francisco, CA, USA) and used in the experiments. Untreated cells were used as a control. […] After 24 h of incubation, the culture medium was replaced with a fresh medium. […] Then, the medium was aspirated and formed formazan crystals were solubilized by adding isopropanol-DMSO mixture (1:1 vol). The intensity of the dissolved crystals was measured using a UVM 340 reader (ASYS Hitech GmbH, Eugendorf, Austria) at a wavelength of 570 nm. Cell viability was estimated by the percentage of MTT reduction in cells to which the tested compounds were added, compared to the control sample, where only the medium was added. The experiments were repeated three times. The IC50 was calculated using GraphPad Prism 9.0.0 (GraphPad Software).
# [2] = system: Candida albicans ATCC 10231; assay: Broth microdilution MIC/MFC, antifungal; format: cell-based; conditions: for MIC: ATCC10231; for MFC: ATCC10231, read-out: MFC
# Description: (§3) To determine the antifungal activity of the newly synthesized Schiff bases against the reference strains of Candida spp., the broth microdilution method was used according to the EUCAST [52] and Clinical and Laboratory Standards Institute (CLSI) guidelines with some modifications to the medium. Before in vitro antifungal activity detection, the basic concentration of 1000 µg/mL of each compound was prepared with Mueller–Hinton broth (BioMaxima, Lublin, Poland) supplemented with 2% glucose (MHB+2% glucose). […] The final concentrations of the Schiff bases ranged from […] to 1000 µg/mL. All the reference strains of Candida spp. used were first subcultured to the Mueller–Hinton agar medium (BioMaxima, Lublin, Poland) with 2% glucose (MHA +2% glucose) at 37 °C for 24 h. Next, 2 µL of appropriate fungal suspensions was added to each well containing 100 µL of MHB + 2% glucose and the various concentrations of the tested Schiff bases.
# (§4) After incubation, 5 μL of the broth media cultured with bacteria or fungi were removed from each well of the plates used in the MIC experiments. Next, they were culturd onto the surface of the MHA medium (BioMaxima, Lublin, Poland) plate for bacteria or MHA +2% glucose plate for yeasts. The inoculated plates were incubated in the conditions mentioned above. After incubation, a visual reading of MBC or MFC values was made. […] Three replicates for each strain and compound were performed.
# [3] = system: Candida tropicalis ATCC 1369; assay: Broth microdilution MIC/MFC, antifungal; format: cell-based; conditions: ATCC1369
# Description: as §3, §4
# [4] = system: Candida glabrata ATCC 90030; assay: Broth microdilution MIC/MFC, antifungal; format: cell-based; conditions: Nakaseomyces glabratus, ATCC90030
# Description: as §3, §4
# [5] = system: Candida krusei ATCC 14243; assay: Broth microdilution MIC/MFC, antifungal; format: cell-based; conditions: Pichia kudriavzevii, ATCC14243
# Description: as §3, §4
# [6] = system: Candida lusitaniae ATCC 3449; assay: Broth microdilution MIC/MFC, antifungal; format: cell-based; conditions: Clavispora lusitaniae, ATCC3449
# Description: as §3, §4
# [7] = system: Candida glabrata ATCC 15126; assay: Broth microdilution MIC/MFC, antifungal; format: cell-based; conditions: Nakaseomyces glabratus, ATCC15126
# Description: as §3, §4
# Candida auris CDC B11903 = assay: Broth microdilution MIC/MFC, antifungal; format: cell-based; conditions: Candidozyma auris, CDCB11903
# Description: as §3, §4
# PC3 = assay: MTT cell viability assay; format: cell-based, human; conditions: Homo sapiens, PC-3, PC3, MTT, read-out: Cytotoxic activity IC50
# Description: as §2
# MDA-MB-231 = assay: MTT cell viability assay; format: cell-based, human; conditions: Homo sapiens, MDA-MB-231, MTT, read-out: Cytotoxic activity IC50
# Description: as §2
# [8] = system: Staphylococcus aureus ATCC 6538; assay: Broth microdilution MIC/MBC, antibacterial; format: cell-based; conditions: ATCC6538
# Description: (§5) The minimal inhibitory concentration (MIC) was determined with the microdilution technique using 96-well polystyrene microplates (Medlab, Poland), as indicated by the European Committee on Antimicrobial Susceptibility Testing (EUCAST) guidelines. In this process, stock solutions of each tested Schiff base dissolved in dimethylsulphoxide (DMSO, Stanlab, Poland) were used at a concentration of 50 mg/mL. Before in vitro antibacterial activity detection, the basic concentration of 1000 µg/mL of each compound was prepared with Mueller–Hinton broth medium (MHB, BioMaxima, Lublin, Poland). The experiment was prepared using Mueller–Hinton broth medium in 96-well microplates. A series of two-fold dilutions of the tested compounds in the concentration range from 0.49 to 1000 μg/mL was made in culture broth medium. Then, 2 μL of bacterial inoculum with a density of 0.5 McFarland standard was added to each well. Each well was filled with a total volume of 100 μL. Then, the microtiter plates were incubated for 18 ± 2 h at 35 °C. After the incubation, the results were spectrophotometrically determined in Biotek ELx800 (Biokom, Janki, Poland) at 600 nm (OD600). The lowest concentration of the tested compounds with the absence of bacterial growth was determined as an MIC. Three replicates for each strain and compound were performed.
# as §4
# [9] = system: Bacillus subtilis ATCC 6633; assay: Broth microdilution MIC/MBC, antibacterial; format: cell-based; conditions: ATCC6633
# Description: as §5, §4
# [10] = system: Pseudomonas aeruginosa ATCC 27853; assay: Broth microdilution MIC/MBC, antibacterial; format: cell-based; conditions: ATCC27853
# Description: as §5, §4
# [11] = system: Escherichia coli ATCC 25922; assay: Broth microdilution MIC/MBC, antibacterial; format: cell-based; conditions: ATCC25922, Escherichia coli ATCC 25922
# Description: as §5, §4
# [12] = system: Micrococcus luteus ATCC 10240; assay: Broth microdilution MIC/MBC, antibacterial; format: cell-based; conditions: ATCC10240
# Description: as §5, §4
# [13] = system: Staphylococcus epidermidis ATCC 12228; assay: Broth microdilution MIC/MBC, antibacterial; format: cell-based; conditions: ATCC12228
# Description: as §5, §4
# [14] = system: Klebsiella pneumoniae ATCC 13883; assay: Broth microdilution MIC/MBC, antibacterial; format: cell-based; conditions: ATCC13883, Klebsiella pneumoniae ATCC 13883
# Description: as §5, §4
# [15] = system: reference strains of bacteria; assay: Positive control antibiotics, broth microdilution MIC; format: cell-based; conditions: range over the bacteria
# Description: as §1
# All reference antimicrobials against bacteria or fungi were tested in a final concentration range from 0.0049 to 10 µg/mL. The tested Schiff bases were two-fold diluted in the concentration range from 0.49 to 1000 μg/mL in culture broth medium for bacteria or fungi. The medium with DMSO at the final concentrations and without the tested Schiff bases served as a control—no microbial growth inhibition was observed. […]
# The minimal inhibitory concentration (MIC) was determined with the microdilution technique using 96-well polystyrene microplates (Medlab, Poland), as indicated by the European Committee on Antimicrobial Susceptibility Testing (EUCAST) guidelines. […] After the incubation, the results were spectrophotometrically determined in Biotek ELx800 (Biokom, Janki, Poland) at 600 nm (OD600). The lowest concentration of the tested compounds with the absence of bacterial growth was determined as an MIC. […]
SMILES,IC50 at 72 h (MTT cell viability assay; 72 h (table footnote)),IC50 at 72 h (MTT cell viability assay; same value in µg/mL),melting point,MIC [2],MFC [2],MIC [3],MFC [4],MIC [4],MIC [5],MIC [6],MIC [7],MIC (Candida auris CDC B11903),IC50 (PC3; 72 h (table footnote)),IC50 (PC3; same value in µg/mL),IC50 (MDA-MB-231; 72 h (table footnote)),IC50 (MDA-MB-231; same value in µg/mL),MIC [8],MIC [9],MIC [10],MIC [11],also measured
C[C@@H]1[C@H](O)[C@@H](C)/C=C/C=C/CC/C=C/C=C/C=C/C=C/C(O[C@H]2O[C@H](C)[C@@H](O)[C@H](N)[C@@H]2O)CC2O[C@](O)(CC(O)C(O)CCC(O)CC(O)CC(O)CC(=O)O[C@H]1C)CC(O)C2C(=O)O (stereo partly shown) [Nystatin],–,–,–,–,–,–,–,–,–,–,–,–,–,–,–,–,–,–,–,–,MIC [1]: 0.24 to 0.48 µg/mL; MBC ([1]; printed MIC = MBC): 0.24 to 0.48 µg/mL
"Cc1ccccc1C=Nn1c(-c2cccc(F)c2)n[nH]c1=S [RO10, 5-(3-fluorophenyl)-4-[(2-methylbenzylidene)amino]-2,4-dihydro-3H-1,2,4-triazole-3-thione]",> 100 µM,> 31.2 µg/mL,223 to 224 °C,500 µg/mL,> 1000 µg/mL,500 µg/mL,> 1000 µg/mL,500 µg/mL,> 1000 µg/mL,> 1000 µg/mL,500 µg/mL,1000 µg/mL,> 100 µM,> 31.2 µg/mL,> 100 µM,> 31.2 µg/mL,125 µg/mL,> 1000 µg/mL,> 1000 µg/mL,> 1000 µg/mL,MFC [3]: > 1000 µg/mL; MFC [7]: > 1000 µg/mL; MBC [8]: > 1000 µg/mL; MIC [12]: > 1000 µg/mL; MIC [13]: 1000 µg/mL; MIC [14]: > 1000 µg/mL
"COc1cccc(C=Nn2c(-c3cccc(F)c3)n[nH]c2=S)c1 [RO11, 5-(3-fluorophenyl)-4-[(3-methoxybenzylidene)amino]-2,4-dihydro-3H-1,2,4-triazole-3-thione]",> 100 µM,> 38.8 µg/mL,203 to 204 °C,500 µg/mL,1000 µg/mL,1000 µg/mL,> 1000 µg/mL,500 µg/mL,1000 µg/mL,> 1000 µg/mL,> 1000 µg/mL,1000 µg/mL,> 100 µM,> 38.8 µg/mL,> 100 µM,> 38.8 µg/mL,> 1000 µg/mL,> 1000 µg/mL,> 1000 µg/mL,> 1000 µg/mL,MIC [12]: > 1000 µg/mL; MIC [13]: > 1000 µg/mL; MIC [14]: > 1000 µg/mL
"COc1ccccc1C=Nn1c(-c2cccc(F)c2)n[nH]c1=S [RO12, 5-(3-fluorophenyl)-4-[(2-methoxybenzylidene)amino]-2,4-dihydro-3H-1,2,4-triazole-3-thione]",98.1 µM,38.1 µg/mL,140 to 143 °C,125 µg/mL,> 1000 µg/mL,500 µg/mL,> 1000 µg/mL,500 µg/mL,1000 µg/mL,500 µg/mL,> 1000 µg/mL,500 µg/mL,> 100 µM,> 38.8 µg/mL,> 100 µM,> 38.8 µg/mL,> 1000 µg/mL,> 1000 µg/mL,> 1000 µg/mL,> 1000 µg/mL,MFC [3]: > 1000 µg/mL; MFC [6]: > 1000 µg/mL; MFC (Candida auris CDC B11903): > 1000 µg/mL; MIC [12]: > 1000 µg/mL; MIC [13]: > 1000 µg/mL; MIC [14]: > 1000 µg/mL
CO/N=C(\C(=O)N[C@@H]1C(=O)N2C(C(=O)O)=C(COC(N)=O)CS[C@H]12)c1ccco1 [cefuroxime],–,–,–,–,–,–,–,–,–,–,–,–,–,–,–,–,–,–,–,–,MIC [15]: 0.24 to 62.5 µg/mL
O=C(O)c1cn(C2CC2)c2cc(N3CCNCC3)c(F)cc2c1=O [ciprofloxacin],–,–,–,–,–,–,–,–,–,–,–,–,–,–,–,–,–,–,–,–,MIC [15]: 0.24 to 0.98 µg/mL
